By IC50 is commonly meant the concentration at which inhibition is half-maximal.

Consider 1 molecule from ChEMBL document CHEMBL4138174, “Design and synthesis of novel C14-urea-tetrandrine derivatives with potent anti-cancer activity” (Eur J Med Chem, 2018).

For assay [1], the system named is PC-3. As to the kind of experiment: Induction of apoptosis in human PC3 cells assessed as early apoptotic cells at 2 uM after 24 hrs by Annexin V-FITC/propidium iodide double staining based flow cytometry (reference value: 0.8%). The assay is classed as functional.
The subject of assay [2] is PC-3. As to the kind of experiment: Induction of apoptosis in human PC3 cells assessed as early apoptotic cells at 3 uM after 24 hrs by Annexin V-FITC/propidium iodide double staining based flow cytometry (reference value: 0.8%). The assay is classed as functional.
For a further assay, the system named is MDA-MB-231. As to the kind of experiment: Cytotoxicity against human MDA-MB-231 cells assessed as reduction in cell viability after 48 hrs by MTT assay. It is filed as functional, cell-based. Conditions: Homo sapiens, MDA-MB-231, 48 h. On the technique in general: Formazan colour is commonly taken as a measure of viable cells.
For assay [3], the system named is PC-3. The assay is described as follows: Induction of apoptosis in human PC3 cells assessed as necrotic cells at 0.5 uM after 24 hrs by Annexin V-FITC/propidium iodide double staining based flow cytometry (reference value: 0.9%). The assay is classed as functional. For orientation: A flow cytometer gives signals particle by particle.
Assay [4] relates to PC-3. The assay is described as follows: Induction of apoptosis in human PC3 cells assessed as viable cells at 3 uM after 24 hrs by Annexin V-FITC/propidium iodide double staining based flow cytometry (reference value: 97.9%). The assay is classed as functional. The settings on record: PC-3, 24 h, read-out: Activity.
A further assay deals with K562. The assay is described as follows: Cytotoxicity against human K562 cells assessed as reduction in cell viability after 48 hrs by MTT assay. It is filed as functional, cell-based. The settings on record: Homo sapiens, K562, 48 h.
Assay [5] relates to PC-3. As to the kind of experiment: Induction of apoptosis in human PC3 cells assessed as early apoptotic cells at 0.5 uM after 24 hrs by Annexin V-FITC/propidium iodide double staining based flow cytometry (reference value: 0.8%). It is filed as functional.
Assay [6] concerns PC-3. The assay is described as follows: Induction of apoptosis in human PC3 cells assessed as necrotic cells at 3 uM after 24 hrs by Annexin V-FITC/propidium iodide double staining based flow cytometry (reference value: 0.9%). The assay is classed as functional.
Assay [7] relates to PC-3. The assay is described as follows: Induction of apoptosis in human PC3 cells assessed as viable cells at 1 uM after 24 hrs by Annexin V-FITC/propidium iodide double staining based flow cytometry (reference value: 97.9%). The assay is classed as functional. The settings on record: PC-3, 24 h, read-out: Activity.
The nature of assay [8]: Cytotoxicity against human WM9 cells assessed as reduction in cell viability after 48 hrs by MTT assay. The assay is classed as functional, cell-based. Conditions: Homo sapiens, WM9, 48 h.
Assay [9] concerns PC-3. As to the kind of experiment: Induction of apoptosis in human PC3 cells assessed as necrotic cells at 1 uM after 24 hrs by Annexin V-FITC/propidium iodide double staining based flow cytometry (reference value: 0.9%). It is filed as functional.
For assay [10], the system named is PC-3. The assay is described as follows: Potency index, ratio of 5-fluorouracil IC50 to compound IC50 for human PC3 cells. It is filed as functional.
In assay [11] the test system is PC-3. As to the kind of experiment: Potency index, ratio of cisplatin IC50 to compound IC50 for human PC3 cells. The assay is classed as functional.
In assay [12] the test system is PC-3. The assay is described as follows: Induction of apoptosis in human PC3 cells assessed as late apoptotic cells at 0.5 uM after 24 hrs by Annexin V-FITC/propidium iodide double staining based flow cytometry (reference value: 0.4%). It is filed as functional.
In assay [13] the test system is PC-3. As to the kind of experiment: Induction of apoptosis in human PC3 cells assessed as necrotic cells at 2 uM after 24 hrs by Annexin V-FITC/propidium iodide double staining based flow cytometry (reference value: 0.9%). The assay is classed as functional.
In assay [14] the test system is PC-3. The assay is described as follows: Cytotoxicity against human PC3 cells assessed as reduction in cell viability after 48 hrs by MTT assay. The assay is classed as functional, cell-based. Conditions: Homo sapiens, PC-3, 48 h.
For assay [15], the system named is PC-3. The assay is described as follows: Induction of apoptosis in human PC3 cells assessed as viable cells at 2 uM after 24 hrs by Annexin V-FITC/propidium iodide double staining based flow cytometry (reference value: 97.9%). Conditions: PC-3, 24 h, read-out: Activity. It is filed as functional.
A further assay relates to HEL. As to the kind of experiment: Cytotoxicity against human HEL cells assessed as reduction in cell viability after 48 hrs by MTT assay. The assay is classed as functional, cell-based. Conditions: Homo sapiens, HEL, 48 h.
The subject of assay [16] is PC-3. The assay is described as follows: Induction of apoptosis in human PC3 cells assessed as early apoptotic cells at 1 uM after 24 hrs by Annexin V-FITC/propidium iodide double staining based flow cytometry (reference value: 0.8%). It is filed as functional.
For assay [17], the system named is PC-3. As to the kind of experiment: Induction of apoptosis in human PC3 cells assessed as late apoptotic cells at 2 uM after 24 hrs by Annexin V-FITC/propidium iodide double staining based flow cytometry (reference value: 0.4%). The assay is classed as functional.
Assay [18] concerns PC-3. The assay is described as follows: Induction of apoptosis in human PC3 cells assessed as late apoptotic cells at 1 uM after 24 hrs by Annexin V-FITC/propidium iodide double staining based flow cytometry (reference value: 0.4%). The assay is classed as functional.
Assay [19] concerns PC-3. The assay is described as follows: Induction of apoptosis in human PC3 cells assessed as late apoptotic cells at 3 uM after 24 hrs by Annexin V-FITC/propidium iodide double staining based flow cytometry (reference value: 0.4%). The assay is classed as functional.
The test system of assay [20] is PC-3. The assay is described as follows: Induction of apoptosis in human PC3 cells assessed as viable cells at 0.5 uM after 24 hrs by Annexin V-FITC/propidium iodide double staining based flow cytometry (reference value: 97.9%). The assay is classed as functional. Conditions: PC-3, 24 h, read-out: Activity.

Consider `COc1cc(NC(=S)Nc2ccc(F)cc2)c2cc1Oc1ccc(cc1)C[C@H]1c3cc(c(OC)cc3CCN1C)Oc1c(OC)c(OC)cc3c1[C@H](C2)N(C)CC3`, for which the Activity in the assay with PC-3 [1] was 13.6%; in the assay on PC-3 [2], 34.4%; with PC-3 [3] it was 0.5%; in the assay with PC-3 [5], 5.3%; in the assay on PC-3 [6], 0.1%; in the assay on PC-3 [9] it was 0.3%. Also, the Activity is 0.9% in the assay with PC-3 [12]; 0.4% in the assay with PC-3 [13]; 11.63% with PC-3 [16]; 2.8% with PC-3 [17]; 0.7% with PC-3 [18]; 2.1% with PC-3 [19]. Also, the IC50 in the assay with MDA-MB-231 came out at 2030 nM; with K562, 1560 nM; in assay [8] it was 2600 nM; in the assay on PC-3 [14], 640 nM; in the assay with HEL it was 2550 nM. The viability at 3 µM with PC-3 [4] worked out at 63.3%. In addition, the viability at 1 µM in the assay with PC-3 [7] was found to be 87.7%. The entries for the “Ratio IC50” value in the assay on PC-3 [10] and in the assay on PC-3 [11] were 31 and 26, respectively. In addition, in the assay on PC-3 [15], the viability at 2 µM turned out to be 83.3%. Besides, the viability at 0.5 µM in the assay with PC-3 [20] is 93.3%.
